In data set [1] the test system is MV4-11. Kind of data set: Induction of apoptosis in human MV4-11 cells assessed as early apoptotic cells at 30 uM incubated for 3 days by Annexin V staining based flow cytometry (reference value: […] %). The format is functional. Conditions: time 3 day. On the technique in general: A flow cytometer gives signals particle by particle.
The subject of data set [2] is MV4-11. Kind of data set: Induction of cell differentiation in human MV4-11 cells assessed as CD11b level at 100 uM incubated for 3 days by Annexin V staining based flow cytometry (reference value: 8.58 %). The format is functional. Conditions: time 3 day.
For data set [3], the system named is MOLM-13. Kind of data set: Induction of apoptosis in human MOLM-13 cells assessed as necrotic cells at 10 uM incubated for 3 days by Annexin V staining based flow cytometry (reference value: 1.23 %). The format is functional. Particulars: time 3 day.
The test system of data set [4] is MV4-11. Kind of data set: Induction of apoptosis in human MV4-11 cells assessed as viable cells at 10 uM incubated for 3 days by Annexin V staining based flow cytometry (reference value: 89.63 %). Format: functional. Particulars: MV4-11, 72 h, time 3 day, read-out: Activity.
For data set [5], the system named is MOLM-13. Kind of data set: Anti-cancer activity against human MOLM-13 cells assessed as reduction in Meis1 mRNA level upto 100 uM by qRT-PCR analysis relative to control. Further details: scale not given: the % may be the effect or the level left. Particulars: up to 100 µM. The format is functional. For orientation: Quantitative PCR measures a nucleic acid by following its amplification.

The target in data set [6] is T1, MAO-A (amine oxidase [flavin-containing] A) (Homo sapiens, UniProt P21397).
T1 sequence (P21397 whole entry): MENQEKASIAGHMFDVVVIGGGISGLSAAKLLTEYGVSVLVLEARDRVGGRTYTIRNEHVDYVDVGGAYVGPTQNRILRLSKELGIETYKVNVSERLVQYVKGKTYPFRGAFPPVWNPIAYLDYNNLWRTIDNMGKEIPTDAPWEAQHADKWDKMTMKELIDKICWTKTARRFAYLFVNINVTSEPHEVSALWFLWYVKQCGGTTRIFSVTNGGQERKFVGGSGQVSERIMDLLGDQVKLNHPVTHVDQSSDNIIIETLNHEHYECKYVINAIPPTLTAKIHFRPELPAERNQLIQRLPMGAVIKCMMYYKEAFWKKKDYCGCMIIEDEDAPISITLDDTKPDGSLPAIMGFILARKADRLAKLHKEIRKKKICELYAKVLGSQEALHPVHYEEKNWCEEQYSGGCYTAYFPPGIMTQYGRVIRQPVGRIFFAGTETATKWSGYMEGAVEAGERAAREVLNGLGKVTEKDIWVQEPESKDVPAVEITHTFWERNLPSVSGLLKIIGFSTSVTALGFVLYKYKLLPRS
Kind of data set: Inhibition of N-terminal FLAG-tagged recombinant human MAO-A expressed in baculovirus infected Sf9 cells upto 10 uM preincubated for 15 mins followed by addition of luciferin derivative substrate measured after 1 hr by Luciferase Glo assay relative to control. Conditions: probe luciferin derivative substrate, time 75 min.

For data set [7], the system named is MOLM-13. Kind of data set: Induction of apoptosis in human MOLM-13 cells assessed as viable cells at 10 uM incubated for 3 days by Annexin V staining based flow cytometry (reference value: 90.54 %). Conditions: MOLM-13, 72 h, time 3 day, read-out: Activity. The format is functional.
Data set [8] concerns MV4-11. Kind of data set: Cytotoxicity against human MV4-11 cells incubated for 7 days by CCK8 assay. Conditions: MV4-11, 168 h. (Formazan colour is commonly taken as a measure of viable cells.)
The test system of data set [9] is MV4-11. Kind of data set: Induction of cell differentiation in human MV4-11 cells assessed as CD11b level at 10 uM incubated for 3 days by Annexin V staining based flow cytometry (reference value: 8.58 %). Format: functional. Particulars: time 3 day.
For data set [10], the target named is T2, MAO-B (amine oxidase [flavin-containing] B) (Homo sapiens, UniProt P27338).
T2 sequence (P27338 whole entry): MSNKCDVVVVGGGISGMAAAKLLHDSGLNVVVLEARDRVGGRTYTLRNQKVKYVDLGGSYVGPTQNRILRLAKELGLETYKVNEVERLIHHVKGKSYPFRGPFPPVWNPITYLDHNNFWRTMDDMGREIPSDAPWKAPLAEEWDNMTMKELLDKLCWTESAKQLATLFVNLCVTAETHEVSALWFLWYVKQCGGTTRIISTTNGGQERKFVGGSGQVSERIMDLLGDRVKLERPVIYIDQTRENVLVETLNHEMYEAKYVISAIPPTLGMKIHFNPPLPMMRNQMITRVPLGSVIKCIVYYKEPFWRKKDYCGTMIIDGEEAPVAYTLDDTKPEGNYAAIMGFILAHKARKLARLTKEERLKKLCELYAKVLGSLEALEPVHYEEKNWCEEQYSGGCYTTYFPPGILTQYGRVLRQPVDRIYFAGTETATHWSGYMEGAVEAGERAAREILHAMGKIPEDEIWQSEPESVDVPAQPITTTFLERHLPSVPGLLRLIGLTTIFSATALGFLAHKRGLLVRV
Kind of data set: Inhibition of N-terminal FLAG-tagged recombinant human MAO-B expressed in baculovirus infected Sf9 cells upto 10 uM preincubated for 15 mins followed by addition of luciferin derivative substrate measured after 1 hr by Luciferase Glo assay relative to control. Conditions: probe luciferin derivative substrate, time 75 min.

In data set [11] the test system is MOLM-13. Kind of data set: Cytotoxicity against human MOLM-13 cells incubated for 7 days by CCK8 assay. Conditions: MOLM-13, 168 h.
Data set [12] can be described thus: Toxicity in NOD-SCID mouse xenografted with human MV4-11 cells assessed as animal survival at 50 to 78.7 mg/kg, sc measured after 33 days. Conditions: in vivo, 792 h, dose 50-78.7 mg/kg, time 33 day. The format is organism-based.
Data set [13] deals with MV4-11. Kind of data set: Induction of apoptosis in human MV4-11 cells assessed as late apoptotic cells at 30 uM incubated for 3 days by Annexin V staining based flow cytometry (reference value: 7.29 %). The format is functional. Particulars: time 3 day.
In data set [14] the test system is MV4-11. Kind of data set: Induction of cell differentiation in human MV4-11 cells assessed as increase in CD11b level upto 400 uM incubated for 7 days […]. Format: functional, cell-based. Particulars: time 7.0 day.
Data set [15] relates to MV4-11. Kind of data set: Induction of apoptosis in human MV4-11 cells assessed as viable cells at 100 uM incubated for 3 days by Annexin V staining based flow cytometry (reference value: 89.63 %). Format: functional. Particulars: MV4-11, 72 h, time 3 day, read-out: Activity.
In data set [16] the test system is MOLM-13. Kind of data set: Induction of cell differentiation in human MOLM-13 cells assessed as increase in CD11b level upto 400 uM incubated for 7 days […]. The format is functional, cell-based. Conditions: time 7.0 day.
A short description of data set [17]: Toxicity in NOD-SCID mouse xenografted with human MV4-11 cells assessed as hunch-back posture at 50 to 78.7 mg/kg, sc measured after 33 days. Format: organism-based. Particulars: in vivo, 792 h, dose 50-78.7 mg/kg, time 33 day.
Data set [18] relates to MV4-11. Kind of data set: Anti-invasive activity against human MV4-11 cells xenografted in NOD-SCID mouse assessed as reduction in tumor formation in ovarian tissue at 78.7 mg/kg, sc measured after 33 days. Format: functional, organism-based. Conditions: time 33.0 day.
The test system of data set [19] is MOLM-13. Kind of data set: Induction of apoptosis in human MOLM-13 cells assessed as viable cells at 30 uM incubated for 3 days by Annexin V staining based flow cytometry (reference value: 90.54 %). Format: functional. Conditions: MOLM-13, 72 h, time 3 day, read-out: Activity.
Data set [20] deals with MV4-11. Kind of data set: Induction of apoptosis in human MV4-11 cells assessed as early apoptotic cells at 100 uM incubated for 3 days by Annexin V staining based flow cytometry (reference value: […] %). The format is functional. Conditions: time 3 day.
Data set [21] relates to MV4-11. Kind of data set: Induction of apoptosis in human MV4-11 cells assessed as viable cells at 30 uM incubated for 3 days by Annexin V staining based flow cytometry (reference value: 89.63 %). Format: functional. Particulars: MV4-11, 72 h, time 3 day, read-out: Activity.
The subject of data set [22] is MV4-11. Kind of data set: Anti-invasive activity against human MV4-11 cells xenografted in NOD-SCID mouse assessed as reduction in tumor formation in ovarian tissue at 50 mg/kg, sc measured after 33 days. The format is functional, organism-based. Particulars: time 33.0 day.

Calls of active or inactive are those of the source. No cut-off for these calls is given here.

In general, inhibition refers to the drop in the measured response relative to a control, in per cent. In general, IC50 refers to the point on the concentration scale where inhibition reaches its midpoint.

For the molecule `O=C(O)C(F)(F)F.O=[N+]([O-])c1ccc(C2NCCc3cc(O)c(O)cc32)cc1` (configuration not stated), the Activity in the data set with MV4-11 [1] is reported as 7.75%; with MV4-11 [2], 69.19%; in the data set on MOLM-13 [3], 6.32%; in the data set on MOLM-13 [5] it was around 60%; with MV4-11 [9], 14.39%; in data set [12], “Non-Toxic”. The Activity with MV4-11 [13] is 28.14%; in data set [17], “Toxic”; with MV4-11 [20] it was 9.09%. Besides, the viability at 10 µM in the data set with MV4-11 [4] is 66.2%; with MOLM-13 [7] it was 76.6%. The inhibition at 1 h, up to 10 µM in [6] and in [10] was below 30% each time. Further, the results for the IC50 in the data set with MV4-11 [8] and with MOLM-13 [11] were 42 µM and 83 µM, respectively. Also, the result in the data set with MV4-11 [14], with MOLM-13 [16] and in the data set with MV4-11 [18] was Active. For the same molecule, in the data set with MV4-11 [15], the viability at 100 µM was determined as 49.9%. Further, the figures for the viability at 30 µM in the data set with MOLM-13 [19] and in the data set on MV4-11 [21] were 61.5% and 57.8%, respectively. Moreover, the outcome in the data set on MV4-11 [22] was inactive.

The values above are taken from ChEMBL document CHEMBL5620367, “Discovery of new tetrahydroisoquinolines as potent and selective LSD1 inhibitors for the treatment of MLL-rearranged leukemia” (Eur J Med Chem, 2023).
